Source: PubChem BioAssay (NCI)
Where “and” joins values, the source holds several entries; their conditions need not be identical. Identical values can stand only once.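 Method: 48-hour compound exposure of cells in 96-well plates, five concentrations, linear interpolation of endpoints. GI50: concentration for 50% inhibition of growth. TGI marks complete inhibition of growth.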

Columns and labels:
Experiment in all cases: NCI-60 cell line screen, 48 h
[1] = tested on: OVCAR-8 ovarian
[2] = tested on: SK-MEL-28 melanoma
[3] = tested on: HCT-15 colon
[4] = tested on: HCT-116 colon
[5] = tested on: SW-620 colon
[6] = tested on: HT29 colon
[7] = tested on: IGROV1 ovarian
[8] = tested on: SN12C renal
[9] = tested on: K-562 leukemia
[10] = tested on: CCRF-CEM leukemia

## C[C@H](Nc1ccc(C#N)n(C)c1=O)c1cc2cc(Cl)ccc2[nH]c1=O
[1]
  GI50: 33.2 µM
  TGI: > 100 µM
[2]
  GI50: 28.5 µM
  TGI: > 100 µM
[3]
  GI50: 28.6 µM
  TGI: > 100 µM
[4]
  GI50: 23.9 µM
  TGI: > 100 µM
[5]
  GI50: 46.3 µM
  TGI: > 100 µM
[6]
  GI50: 33.1 µM
  TGI: > 100 µM
[7]
  GI50: 16 µM
  TGI: 89.7 µM
[8]
  GI50: 26.7 µM
  TGI: > 100 µM
[9]
  GI50: 27.1 µM
  TGI: > 100 µM
[10]
  GI50: 24.5 µM
  TGI: > 100 µM

## NC(CCc1ccccc1)(C(=O)O)c1ccccc1 (centres undefined)
[1]
  TGI: > 100 µM
[2]
  TGI: > 100 µM
[3]
  TGI: > 100 µM
[4]
  TGI: > 100 µM
[5]
  TGI: > 100 µM
[6]
  TGI: > 100 µM
[7]
  TGI: > 100 µM
[8]
  TGI: > 100 µM
[9]
  TGI: > 100 µM
[10]
  TGI: > 100 µM

## Cc1cc(N2CCOCC2)nc(N(CCCNc2ccnc3cc(Cl)ccc23)Cc2ccc3c(c2)OCO3)n1
[1]
  GI50: 1.85 µM
  TGI: 4.09 µM
[4]
  GI50: 0.464 µM
  TGI: 1.63 µM
[5]
  GI50: 1.44 µM
  TGI: 3.05 µM
[6]
  GI50: 1.34 µM
  TGI: 2.8 µM
[9]
  GI50: 0.436 µM
  TGI: 2.42 µM
[10]
  GI50: 0.355 µM
  TGI: 2.1 µM

## Cn1c2c(c3c(=O)[nH]ncc31)CCc1ccccc1-2
[1]
  TGI: > 100 µM
[2]
  TGI: 70.8 µM
[3]
  TGI: 67.3 µM
[4]
  TGI: 64.2 µM
[5]
  TGI: > 100 µM
[6]
  TGI: > 100 µM
[7]
  TGI: 60.2 µM
[8]
  TGI: > 100 µM
[9]
  TGI: > 100 µM
[10]
  TGI: 60.7 µM

## CN(C)C/C=C(/c1ccc(Br)cc1)c1cccnc1
[1]
  TGI: > 100 µM
[2]
  TGI: 34.1 µM
[3]
  TGI: > 100 µM
[4]
  TGI: > 100 µM
[5]
  TGI: > 100 µM
[6]
  TGI: > 100 µM
[7]
  TGI: > 100 µM
[8]
  TGI: > 100 µM
[9]
  TGI: > 100 µM

## CC(C)c1ccc2c(c1)[C@@]1(C)CC[C@H](C)C(C)(C)C1CC2 (some centres undefined)
[1]
  TGI: 33.1 µM
[2]
  TGI: 31.6 µM
[3]
  TGI: 34 µM
[4]
  TGI: 34.9 µM
[5]
  TGI: > 100 µM
[6]
  TGI: 31.3 µM
[7]
  TGI: > 100 µM
[8]
  TGI: 31.8 µM
[9]
  TGI: > 100 µM
[10]
  TGI: 47.7 µM

## NCCCCN
[1]
  TGI: > 100 µM
[2]
  TGI: > 100 µM
[3]
  TGI: > 100 µM
[4]
  TGI: > 100 µM
[5]
  TGI: > 100 µM
[6]
  TGI: > 100 µM
[7]
  TGI: > 100 µM
[9]
  TGI: > 100 µM
[10]
  TGI: > 100 µM

## CCCCCCOC(=O)C(N)Cc1ccc(OC)cc1 (centres undefined)
[1]
  TGI: > 100 µM
[2]
  TGI: > 100 µM
[3]
  TGI: > 100 µM
[4]
  TGI: > 100 µM
[5]
  TGI: > 100 µM
[6]
  TGI: > 100 µM
[7]
  TGI: > 100 µM
[8]
  TGI: > 100 µM
[9]
  TGI: > 100 µM
[10]
  TGI: > 100 µM

## COc1cccc(/C=N/[N-]C(N)=O)c1[O-].[Cu+2].[OH3+].c1cnc2c(c1)ccc1cccnc12
[1]
  TGI: 31.9 µM
[2]
  TGI: 29.7 µM
[3]
  TGI: > 100 µM
[4]
  TGI: 27.8 µM
[5]
  TGI: > 100 µM
[6]
  TGI: 75.5 µM
[7]
  TGI: 45.7 µM
[8]
  TGI: > 100 µM
[9]
  TGI: 39.3 µM
[10]
  TGI: 66.2 µM

## CC(Br)C(=O)c1ccc2cc(Br)c3ccccc3c2c1 (centres undefined)
[1]
  TGI: 27.5 µM
[2]
  TGI: 34 µM
[3]
  TGI: 31 µM
[4]
  TGI: 29.9 µM
[5]
  TGI: 26.3 µM
[6]
  TGI: 31.8 µM
[7]
  TGI: 26.3 µM
[8]
  TGI: 23.3 µM
[9]
  TGI: 42.9 µM
[10]
  TGI: 14.6 µM

## CC(C)(C)c1ccc(O)c(Br)c1
[1]
  TGI: > 100 µM
[2]
  TGI: > 100 µM
[3]
  TGI: > 100 µM
[4]
  TGI: > 100 µM
[5]
  TGI: > 100 µM
[6]
  TGI: > 100 µM
[7]
  TGI: > 100 µM
[8]
  TGI: > 100 µM
[9]
  TGI: > 100 µM
[10]
  TGI: > 100 µM

## O=P(O)(O)OP(=O)(O)O
[1]
  TGI: > 100 µM
[2]
  TGI: > 100 µM
[3]
  TGI: > 100 µM
[4]
  TGI: > 100 µM
[5]
  TGI: > 100 µM
[6]
  TGI: > 100 µM
[7]
  TGI: > 100 µM
[8]
  TGI: > 100 µM
[9]
  TGI: > 100 µM
[10]
  TGI: > 100 µM

## O=S1c2ccccc2N=C(c2ccc3ccccc3c2)CC1c1ccccc1 (centres undefined)
[1]
  TGI: 30 µM
[2]
  TGI: > 100 µM
[3]
  TGI: 32.5 µM
[4]
  TGI: 33.6 µM
[5]
  TGI: 29.3 µM
[6]
  TGI: 35.1 µM
[7]
  TGI: 40.3 µM
[8]
  TGI: 73.9 µM
[9]
  TGI: 62.1 µM
[10]
  TGI: 81.2 µM

## C/C(=C\CNc1ncnc2nc(Cl)[nH]c12)CO
[1]
  TGI: > 100 µM
[2]
  TGI: > 100 µM
[4]
  TGI: > 100 µM
[5]
  TGI: > 100 µM
[6]
  TGI: > 100 µM
[7]
  TGI: > 100 µM
[8]
  TGI: > 100 µM
[9]
  TGI: > 100 µM
[10]
  TGI: > 100 µM

## COC(=O)c1c(O)ccc2c1c1c(n2Cc2ccccn2)C(=O)c2ccccc2C1
[1]
  TGI: > 100 µM
[2]
  TGI: > 100 µM
[3]
  TGI: > 100 µM
[4]
  TGI: > 100 µM
[5]
  TGI: > 100 µM
[6]
  TGI: > 100 µM
[7]
  TGI: > 100 µM
[8]
  TGI: > 100 µM
[9]
  TGI: > 100 µM
[10]
  TGI: > 100 µM

## Fc1cc(C2=C[C@H](c3ccc4c(c3)OCO4)NC(=S)N2)c(Cl)cc1Cl
[1]
  TGI: > 100 µM
[2]
  TGI: > 100 µM
[3]
  TGI: > 100 µM
[4]
  TGI: > 100 µM
[5]
  TGI: > 100 µM
[6]
  TGI: > 100 µM
[7]
  TGI: > 100 µM
[8]
  TGI: 90.8 µM
[9]
  TGI: > 100 µM
[10]
  TGI: > 100 µM

## CCOC(=O)C(=CNC(Cc1c[nH]c2ccccc12)C(=O)OC)C(=O)OCC (centres undefined)
[1]
  TGI: > 100 µM
[2]
  TGI: > 100 µM
[3]
  TGI: > 100 µM
[5]
  TGI: > 100 µM
[6]
  TGI: > 100 µM
[7]
  TGI: > 100 µM
[8]
  TGI: > 100 µM
[9]
  TGI: > 100 µM
[10]
  TGI: > 100 µM

## COC(=N)C(C)C
[2]
  TGI: > 100 µM
[3]
  TGI: > 100 µM
[4]
  TGI: > 100 µM
[5]
  TGI: > 100 µM
[6]
  TGI: > 100 µM
[7]
  TGI: > 100 µM
[8]
  TGI: > 100 µM
[9]
  TGI: > 100 µM
[10]
  TGI: > 100 µM

## CCOC(=O)C(C)OC(=O)c1ccc(C)cc1 (centres undefined)
[1]
  TGI: > 100 µM
[2]
  TGI: > 100 µM
[3]
  TGI: > 100 µM
[4]
  TGI: > 100 µM
[5]
  TGI: > 100 µM
[6]
  TGI: > 100 µM
[7]
  TGI: > 100 µM
[8]
  TGI: > 100 µM
[9]
  TGI: > 100 µM
[10]
  TGI: > 100 µM

## Clc1ccc(NCc2nnc(COc3ccc(OCc4nnc(CNc5ccc(Cl)cc5)o4)c(Cl)c3)o2)cc1
[1]
  TGI: > 100 µM
[2]
  TGI: > 100 µM
[3]
  TGI: > 100 µM
[4]
  TGI: > 100 µM
[5]
  TGI: > 100 µM
[6]
  TGI: 95.6 µM
[7]
  TGI: > 100 µM
[8]
  TGI: > 100 µM
[10]
  TGI: 44.8 µM

## O=C(CSc1nc2ccc(Cl)cc2c(=O)n1-c1ccccc1)N=Nc1c(O)[nH]c2ccc(F)cc12
[1]
  TGI: 3.33 µM
[2]
  TGI: 11.3 µM
[3]
  TGI: 3.45 µM
[4]
  TGI: 3.28 µM
[5]
  TGI: 5.43 µM
[6]
  TGI: 3.96 µM
[7]
  TGI: 4.39 µM
[8]
  TGI: 4.67 µM
[9]
  TGI: 11.3 µM
[10]
  TGI: 6.34 µM

## COC1OC(C(=O)CP(=O)(OC)OC)C(OCc2ccccc2)C(OCc2ccccc2)C1OCc1ccccc1 (centres undefined)
[1]
  TGI: 36.8 µM and 44.5 µM
[2]
  TGI: 40 µM and 33.2 µM
[3]
  TGI: 33.4 µM and 36.1 µM
[4]
  TGI: 29 µM and 30.2 µM
[5]
  TGI: > 100 µM and 58 µM
[6]
  TGI: 30.6 µM and 31.7 µM
[7]
  TGI: 35.9 µM and 35.4 µM
[8]
  TGI: 30.1 µM and 30 µM
[9]
  TGI: 63.1 µM and > 100 µM
[10]
  TGI: > 100 µM and 96.3 µM

## COc1cc(S(=O)(=O)N/N=C/C=C/c2ccccc2)c(OC)cc1NC(C)=O
[1]
  TGI: > 100 µM
[2]
  TGI: > 100 µM
[3]
  TGI: > 100 µM
[4]
  TGI: > 100 µM
[5]
  TGI: > 100 µM
[6]
  TGI: > 100 µM
[7]
  TGI: > 100 µM
[8]
  TGI: > 100 µM
[10]
  TGI: > 100 µM

## CC(C)(C)OC(=O)N1C(C2=COc3ccccc3O2)=COc2cccnc21
[1]
  TGI: 4.06 µM
[2]
  TGI: 3.47 µM
[3]
  TGI: 3.46 µM
[4]
  TGI: 4.98 µM
[5]
  TGI: 4.56 µM
[6]
  TGI: 5.8 µM
[7]
  TGI: 3.35 µM
[8]
  TGI: 3.37 µM
[9]
  TGI: 5.33 µM

## O=c1oc2c(ccc3occc32)c(N2CCCCC2)c1-c1ccccc1
[1]
  TGI: > 100 µM
[2]
  TGI: > 100 µM
[3]
  TGI: > 100 µM
[4]
  TGI: > 100 µM
[5]
  TGI: > 100 µM
[6]
  TGI: > 100 µM
[7]
  TGI: > 100 µM
[8]
  TGI: > 100 µM
[9]
  TGI: > 100 µM
[10]
  TGI: > 59.5 µM
